Test results taken from PMC4947017 (ACS chemical biology, 2016).

What was measured:
[1] = target: T1, neurotensin receptor 1 (NTR1) (Homo sapiens, UniProt P30989); test: […]-NT radioligand competitive displacement in NTR1-U2OS membranes; assay type: binding
[2] = target: T1, neurotensin receptor 1 (NTR1); test: […]-NT radioligand binding to NTR1-U2OS membranes

T1 sequence (P30989 whole entry): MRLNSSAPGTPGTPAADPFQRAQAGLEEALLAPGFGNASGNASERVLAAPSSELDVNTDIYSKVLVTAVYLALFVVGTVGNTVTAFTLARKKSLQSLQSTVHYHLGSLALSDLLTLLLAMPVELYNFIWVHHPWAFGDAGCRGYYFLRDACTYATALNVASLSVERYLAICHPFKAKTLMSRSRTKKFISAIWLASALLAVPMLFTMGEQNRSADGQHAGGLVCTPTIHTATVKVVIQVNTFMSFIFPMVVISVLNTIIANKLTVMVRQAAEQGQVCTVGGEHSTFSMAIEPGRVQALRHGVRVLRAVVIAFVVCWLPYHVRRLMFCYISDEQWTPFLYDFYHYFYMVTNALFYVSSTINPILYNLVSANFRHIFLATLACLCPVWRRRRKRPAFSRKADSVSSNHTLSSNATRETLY

SMILES	IC50 [1]	EC50 [2] [nM]
COc1cccc(OC)c1-c1nc(C(=O)N[C@@H](CC(C)C)C(=O)O)cn1-c1ccnc2cc(Cl)ccc12 [ML301]	-4.0 Log(IC50)	
COc1cc2nc(C3CC3)nc(N3CCN(c4ccccc4OC)CC3)c2cc1OC [ML314]		316
